Consider ten molecules from paper PMC6661809, “Lead optimization for promising monoamine oxidase inhibitor from eugenol for the treatment of neurological disorder: synthesis and in silico based study” (BMC Chemistry, 2019).

For data set [1], the system named is rat MAO-A. Further details: method as in PMID 28771213. The following applies: Table 1, literature overview; cited from earlier work.
Data set [2] relates to rat MAO-B. Details: method as in PMID 28771213. The settings on record: Table 1, literature overview; cited from earlier work.
The next data set in a line: DPPH scavenging activity. The following applies: Table 6, mean ± SEM, n = 3. On the procedure:
Solutions of synthesized compounds were set in ethanol/water (1:1) having 10 mM to 100 mM at a period of 10 mM. The 0.01% DPPH· stock solution was prepared in ethanol/water (1:1). Samples were prepared as 5 mL DPPH· solution was mixed with 5 mL L-ascorbic acid solution then shaken vigorously and kept in the dark. Corresponding blank sample were prepared and L-ascorbic acid was used as reference standard. […] The actual decrease in absorption induced by the test was compared with the positive controls. The IC50 values were calculated use the dose inhibition curve in linear range by plotting the extract concentration versus the corresponding scavenging effect through following equation [(ADR − APR)/AO] × 100. Where ADR is the absorbance prior to reaction and APR is the absorbance after reaction with DPPH·.
In general terms: The DPPH test is a chemical assay of radical scavenging.

The nature of data set [3]: Ferric reducing antioxidant power (FRAP) assay.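 Further: Ferrous-TPTZ reduction read as absorbance at 593 nm.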 The following applies: Table 9, mean ± SEM, n = 3. As for the experimental part: The capacity of antioxidants to decrease ferric iron is measured by this method. The reaction of […] (TPTZ) and complex ferric iron yields ferrous form at low pH. […] This method was adopted from the reports of Benzie et al..

For data set [4], the target named is T1, hMAO-B (Homo sapiens, UniProt P27338).
T1 construct: purchased Sigma-Aldrich; host or cells: insect cells (BTI-TN-5B14) infected with recombinant baculovirus
T1 sequence (P27338 1-520): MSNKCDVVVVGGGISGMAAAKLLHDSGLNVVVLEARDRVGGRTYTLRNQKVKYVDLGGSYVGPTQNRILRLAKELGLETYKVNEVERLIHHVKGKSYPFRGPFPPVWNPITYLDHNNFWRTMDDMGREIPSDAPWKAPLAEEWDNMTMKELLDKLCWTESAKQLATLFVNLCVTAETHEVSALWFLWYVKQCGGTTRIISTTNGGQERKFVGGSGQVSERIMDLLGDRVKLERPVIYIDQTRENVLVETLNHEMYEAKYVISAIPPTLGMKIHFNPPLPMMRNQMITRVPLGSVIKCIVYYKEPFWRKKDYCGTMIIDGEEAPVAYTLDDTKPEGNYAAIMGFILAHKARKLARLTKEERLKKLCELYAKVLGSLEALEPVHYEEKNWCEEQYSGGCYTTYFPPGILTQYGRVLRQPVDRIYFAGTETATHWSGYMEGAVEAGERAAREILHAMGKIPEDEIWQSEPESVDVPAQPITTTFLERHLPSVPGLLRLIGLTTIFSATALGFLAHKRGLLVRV
Briefly: Recombinant human MAO-B inhibition screening (Amplex Red, p-tyramine). In kind it is biochemical. The settings on record: p-tyramine substrate, mean SEM. The text has this: (§1) To evaluate IC50 values for the inhibition of human MAO-A and MAO-B by newly synthesized compounds the commercially available recombinant human enzymes expressed in insect cells were used (Sigma-Aldrich). The MAO inhibition assay was based on the method described by Anderson et al., 1993 and Chimenti et al. with some modifications. The Amplex Red MAO Kit tyramine (Sigma-Aldrich) affords a suitable fluorimetric method to evaluate MAO enzyme action of synthetic and natural compounds. In the assay, MAO reacts with p-tyramine, a common substrate for both MAO isoforms, ensuing in the production of H2O2, which is identified by a fluorimetric method (λex = 530/λem = 585 nm). Each test well contained 0.1 mL of sodium phosphate buffer (0.05 M, pH 7.4), a range of concentrations of the eugenol based derivatives or reference compounds along with recombinant hMAO-A or hMAO-B in appropriate quantity. After the preparation of this mixture the wells were subjected to incubation for 15 min at 37 °C, placed in the dark fluorimeter chamber. Once this incubation period over, the process was rendered by mixing 200 µM Amplex Red reagent (Sigma-Aldrich), 1 U/mL horseradish peroxidase (Sigma-Aldrich) and p-tyramine (Sigma-Aldrich). Subsequently, the formation of hydrogen peroxide exerted by MAO isoforms was quantified by using Amplex-Red reagent, a non-fluorescent probe that reacts with H2O2 in the existence of horse radish peroxidase to generate the fluorescent component resorufin. Moreover, the control analysis was calculated in the absence of compound and reference inhibitors. The probability of compounds to change the fluorescence produced in the reaction mix due to non-enzymatic inhibition was assessed by mixing titled compounds to solutions of single Amplex Red reagent in a sodium phosphate buffer. Data were processed in Microsoft Excel, to calculate IC50 values.

A short description of data set [5]: Nitric oxide scavenging activity. The settings on record: Table 8, mean ± SEM, n = 3. The text has this:
The generation of nitric oxide (NO·) on biological tissues is mediated by particular nitric oxide synthases enzyme that control the catabolism of the arginine to citrulline via creation of NO through a five electron oxidative reaction. At the physiological pH (7.2) in aqueous solution sodium nitroprusside decompose to produce NO·. Finally, NO· reacts with oxygen at underaerobic conditions and produces stable products (nitrate and nitrite), this amount can be determined by means of Griess reagent. The procedure for the nitric oxide scavenging activity was adopted from reports of Alam et al..

A short description of data set [6]: Hydrogen peroxide scavenging (H2O2) assay. The settings on record: Table 7, mean ± SEM, n = 3. As for the experimental part: Hydrogen peroxide generally turns into water and oxygen and produces highly toxic hydroxyl radical that renders the damage to DNA and peroxidation of lipid. H2O2 scavenging ability of eugenol based derivatives was evaluated by method described by Nakano and colleagues with some alteration. The hydrogen peroxide solution (40 mM) was prepared in phosphate buffer (40 mM pH 7.4) and addition of several ranges of synthesized derivatives (05–80 μg/mL) was done into H2O2 solution (2 mL). The determination of H2O2 concentration was done by UV/Vis Epoch ELISA reader at 230 nm upon incubation of 10 min. Solution of phosphate buffer without H2O2 was noted as blank reading. The hydrogen peroxide percentage inhibition was estimated through the formula [(AH − AD)/AO] × 100, where AH is the absorbance of the control and AD is the absorbance of compounds/reference taken as 05–80 μg/mL L-ascorbic acid.

For the next data set, the target named is T2, hMAO-A (Homo sapiens, UniProt P21397).
T2 construct: purchased Sigma-Aldrich; host or cells: insect cells (BTI-TN-5B14) infected with recombinant baculovirus
T2 sequence (P21397 1-527): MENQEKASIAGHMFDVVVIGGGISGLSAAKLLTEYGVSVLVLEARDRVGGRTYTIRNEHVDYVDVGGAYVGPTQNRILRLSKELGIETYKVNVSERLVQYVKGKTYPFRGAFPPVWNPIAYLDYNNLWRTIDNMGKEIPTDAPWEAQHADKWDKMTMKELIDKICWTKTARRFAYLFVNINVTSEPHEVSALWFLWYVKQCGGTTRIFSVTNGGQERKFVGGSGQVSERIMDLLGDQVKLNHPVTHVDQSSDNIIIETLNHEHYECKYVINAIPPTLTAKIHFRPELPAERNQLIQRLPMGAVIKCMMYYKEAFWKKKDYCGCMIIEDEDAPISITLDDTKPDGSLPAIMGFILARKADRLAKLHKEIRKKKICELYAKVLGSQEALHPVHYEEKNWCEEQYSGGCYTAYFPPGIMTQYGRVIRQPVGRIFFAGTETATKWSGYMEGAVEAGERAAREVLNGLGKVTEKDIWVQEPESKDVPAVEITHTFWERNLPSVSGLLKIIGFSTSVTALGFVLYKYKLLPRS
Briefly: Recombinant human MAO-A inhibition screening (Amplex Red, p-tyramine). It is filed as biochemical. The settings on record: for Selectivity index: IC50 (MAO-A)/IC50 (MAO-B); for IC50: recombinant hMAO-A, p-tyramine substrate, mean SEM.
Text: as §1

Data set [7] relates to mice. Further details: method as in PMID 28771213. The following applies: repeated administration, dose-dependent; cited from earlier work.
Data set [8] deals with rat MAO-B. The following applies: mitochondrial rat brain; cited from earlier work.
For data set [9], the system named is mice. Details: method as in PMID 21190052. The following applies: administered for 14 days; cited from earlier work.
For data set [10], the target named is T1, hMAO-B. The following applies: eugenol from Rhizoma acori graminei; cited from earlier work.
The next data set addresses MAO B. Details: method as in PMID 21190052. The following applies: cited from earlier work.
The subject of data set [11] is mice. Details: method as in PMID 28771213. The settings on record: cited from earlier work.
In data set [12] the target is rat MAO-A. The following applies: mitochondrial rat brain; cited from earlier work.
Another data set deals with human MAO-A. Further details: method as in PMID 21190052. The settings on record: competitive inhibitor; cited from earlier work.
In another data set the test system is Swiss mouse. Further details: method as in PMID 28771213. The settings on record: controls negative and positive (imipramine); cited from earlier work.

One may read the IC50 as the concentration that inhibits the measured activity by half. With `Cc1ccc(C(C)C)cc1O` [Carvacrol], the figures for the IC50 in the data set on rat MAO-A [1] and in the data set with rat MAO-B [2] were 15.6 ± 0.49 µM and 23.42 ± 0.04 µM, respectively.

For orientation: melting point means the temperature, or range, at which the solid turns liquid. The molecule `C=CCc1ccc(OC(=O)c2ccccc2S)c(OC)c1` [Compound 13d, 4-allyl-2-methoxyphenyl 2-mercaptobenzoate] showed a melting point of 182 to 184 °C. In “DPPH scavenging activity”, the “DPPH scavenging IC50” value worked out at 14.88 ± 0.018 µg/mL. Moreover, in [3], the “FRAP IC50” value amounted to 12.45 ± 0.017 µg/mL. For the same molecule, on hMAO-B [4], the IC50 was found to be 13.95 ± 0.005 µM. The “Nitric oxide scavenging IC50” value in data set [5] came out at 11.23 ± 0.032 µg/mL. Further, in data set [6], the “H2O2 scavenging IC50” value is reported as 14.4 ± 0.143 µg/mL. Moreover, on hMAO-A, the Selectivity index is reported as 1.49 and the IC50 was found to be 20.89 ± 0.023 µM.

The molecule `C=CCc1ccc(OC(=O)/C=C\c2ccc(O)c(OC)c2)c(OC)c1` [Compound 16, (Z)-4-allyl-2-methoxyphenyl 3-(4-hydroxy-3-methoxyphenyl)acrylate] returned a melting point of 120 to 122 °C. For the same molecule, in the data set “DPPH scavenging activity”, the “DPPH scavenging IC50” value is recorded as 27.70 ± 0.023 µg/mL. For the same molecule, the “FRAP IC50” value in data set [3] is recorded as 16.88 ± 0.099 µg/mL. Besides, the IC50 on hMAO-B [4] was 49.15 ± 0.011 µM. The “Nitric oxide scavenging IC50” value in data set [5] was determined as 18.63 ± 0.654 µg/mL. For the same molecule, the “H2O2 scavenging IC50” value in data set [6] amounted to 20.6 ± 0.856 µg/mL. On hMAO-A, the Selectivity index is given as 0.14 and the IC50 stood at 7.348 ± 0.027 µM.

The term Ki denotes the dissociation constant of the complex between target and ligand, obtained from inhibition or displacement. Broadly, the LD50 is the dose expected to kill half of the subjects tested. Regarding `C=CCc1ccc(O)c(OC)c1` [Eugenol], the IC50 was 5.34 ± 0.065 µM in the data set on rat MAO-A [1], 24 ± 1.32 µM in the data set with rat MAO-B [2], 13.3 ± 0.037 µM on hMAO-B [4] and 16.54 ± 0.045 µM on hMAO-A. Besides, in the data set with mice [7], the “Immobility in the FST and tail suspension test (TST)” value is recorded as “decreased immobility”. Besides, the Ki on rat MAO-B [8] is 79.9 µM; at hMAO-B [10], 15 µM; at MAO B, 211 µM; on rat MAO-A [12], 25.7 µM; at human MAO-A it was 25 µM. The “DPPH scavenging IC50” value in the data set “DPPH scavenging activity” was 10.29 ± 0.011 µg/mL. The “FRAP IC50” value in data set [3] was found to be 10.627 ± 0.082 µg/mL. Moreover, the “Forced swim test (FST) score” value in the data set on mice [9] was “significantly increased”. In addition, the “Nitric oxide scavenging IC50” value in [5] amounted to 11.724 ± 0.003 µg/mL. Further, in the data set with mice [11], the LD50 is 4500 mg/kg. The “H2O2 scavenging IC50” value in [6] was 9.980 ± 0.012 µg/mL. Also, the Selectivity index on hMAO-A was found to be 1.24.

Regarding `C=CCc1ccc(O)c(-c2ccc(O)c(CC=C)c2)c1` [Honokiol], the Ki was 54.6 µM at rat MAO-B [8] and 38.2 µM at rat MAO-A [12].

As for `C=CCc1ccc(O)c(-c2cc(CC=C)ccc2O)c1` [Magnolol], the results for the Ki on rat MAO-B [8] and on rat MAO-A [12] were 49.3 µM and 35.4 µM, respectively.

`CC1CCC(C(C)C)C(O)C1` (stereo not drawn) [Menthol]: the IC50 was 23.1 ± 0.35 µM with rat MAO-A [1] and 37.4 ± 0.76 µM in the data set on rat MAO-B [2].

For the molecule `C=CCc1ccc(OC)c(OC)c1` [Methyl-eugenol], the IC50 was 7.12 ± 0.46 µM in the data set with rat MAO-A [1] and 43.23 ± 0.054 µM in the data set on rat MAO-B [2].

Regarding `COc1ccc(C(C)=O)c(O)c1` [Paeonol], the Ki on rat MAO-B [8] is 54.6 µM; at rat MAO-A [12], 51.1 µM.

With `COc1cc(C=O)ccc1O` [Vanillin], the IC50 is 17.88 ± 0.16 µM with rat MAO-A [1] and 45.34 ± 0.09 µM with rat MAO-B [2]. In the data set on Swiss mouse, the “Observations in behavioral test (FST)” value is “Controls: negative and positive (imipramine) The treatment reduced the spontaneous locomotion”.
